What was measured:
[1] = tested on: AsPc-1 cells; assay: Inhibitory activity for AsPc-1 cell proliferation (CCK-8); format: cell-based, human
Experimental: AsPc-1 cells in a well-growing state were collected into a centrifuge tube, adjusted to a cell density of 3 × 10^4 cells/mL, and inoculated onto a 96-well plate (100 µL/well). The compounds were added using a nanoliter pipettor such that the final concentrations of the compounds were 5000 nM-0.31 nM (the addition was performed in duplicate). Meanwhile, a control was set. After 72 h of incubation in the cell incubator, the assay reagent CCK-8 (manufacturer: Dojindo Laboratories; 10 µL/well) was added. After 3 h of incubation in the cell incubator, the absorbance was measured at 450 nm on a PerkinElmer Envision microplate reader. A four-parameter analysis was performed, a dose-response curve was fitted, and IC50 was calculated.

[2] = tested on: Capan-1 cells; assay: Inhibitory activity for Capan-1 cell proliferation (CCK-8); format: cell-based; conditions: 5 days incubation
Experimental: Capan-1 cells in a well-growing state were collected into a centrifuge tube, adjusted to a cell density of 1.5 × 10^4 cells/mL, and inoculated onto a 96-well plate (100 µL/well). […] Meanwhile, a control was set. After 5 days of incubation in the cell incubator, the assay reagent CCK-8 (manufacturer: Dojindo Laboratories, Beijing; 10 µL/well) was added. After 4 h of incubation in the cell incubator, the absorbance was measured at 450 nm on a PerkinElmer Envision microplate reader. A four-parameter analysis was performed, a dose-response curve was fitted, and IC50 was calculated.

[3] = Homo sapiens, ASPC1, 72 h incubation

SMILES	IC50 [1, 3] [nM]	IC50 ([2]; Homo sapiens, CAPAN-1, 120 h) [nM]	IC50 ([1]; 72 h incubation) [nM]	IC50 [2] [nM]
[2H]C([2H])(Oc1nc2c3c(nc(-c4cccc5ccc(F)c(C#C)c45)c(F)c3n1)OC[C@H](C)N2C(C)c1cccnc1N)[C@@]12CCCN1C[C@H](F)C2 (single isomer, unassigned) [Example 113]	≤ 100	< 100		
C#Cc1c(F)ccc2cc(O)cc(-c3nc4c5c(nc(OCC67CCCN6CC(F)C7)nc5c3F)N(C(C)c3cccnc3N)CCO4)c12 (single isomer, unassigned) [Example 36]	≤ 100	< 100		
C#Cc1c(F)ccc2cc(O)cc(-c3nc4c5c(nc(OC[C@@H]6C[C@H](F)CN6C)nc5c3F)N(C(C)c3cccnc3N)[C@@H](C)CO4)c12 (single isomer, unassigned) [Example 105]	≤ 100	< 100		
C#Cc1c(F)ccc2cc(O)cc(-c3nc4c5c(nc(N6CC(C)(N(C)C)C6)nc5c3F)N(C(C)c3cccnc3N)[C@@H](C)CO4)c12 (single isomer, unassigned) [Example 156]	≤ 100	< 100		
C#Cc1c(F)ccc2cc(O)cc(-c3nc4c5c(nc(OC[C@@]67CCCN6C/C(=C\F)C7)nc5c3F)N(C(C)c3cccnc3N)[C@@H](C)CO4)c12 (single isomer, unassigned) [Example 176]	≤ 100	< 100		
[2H]C([2H])(Oc1nc2c3c(nc(-c4cccc5ccc(F)c(C#C)c45)c(F)c3n1)OC[C@H](C)N2C(C)c1cccnc1N)[C@@]12CCCN1C[C@H](F)C2 (single isomer, unassigned) [Example 114]			≤ 100	< 100
C#Cc1c(F)ccc2cc(O)cc(-c3nc4c5c(nc(OCCN6CCCC6)nc5c3F)N(C(C)c3cccnc3N)[C@@H](C)CO4)c12 (single isomer, unassigned) [Example 138]	≤ 100	< 100		
C#Cc1c(F)ccc2cc(O)cc(-c3nc4c5c(nc(OC[C@@]67CCCN6CC(=C)C7)nc5c3F)N(C(C)c3cccnc3N)[C@@H](C)CO4)c12 (single isomer, unassigned) [Example 178]	≤ 100			
C#Cc1c(F)ccc2cc(O)cc(-c3nc4c5c(nc(OCCN6CC(F)C6)nc5c3F)N(C(C)c3cccnc3N)[C@@H](C)CO4)c12 (single isomer, unassigned) [Example 172]	≤ 100	< 100		
C#Cc1c(F)ccc2cc(O)cc(-c3nc4c5c(nc(OC[C@@]67CCCN6C/C(=C\F)C7)nc5c3F)N(C(C)c3cccnc3N)[C@@H](C)CO4)c12 (single isomer, unassigned) [Example 177]			≤ 100	< 100
C#Cc1c(F)ccc2cc(O)cc(-c3nc4c5c(nc(OCC67CCCN6CC(F)C7)nc5c3F)N(C(C)c3cccnc3N)C(C)CO4)c12 (single isomer, unassigned) [Example 40]			≤ 100	< 100
[2H]C([2H])(Oc1nc2c3c(nc(-c4cc(O)cc5ccc(F)c(C#C)c45)c(F)c3n1)OC[C@H](C)N2C(C)c1cccnc1N)[C@@]12CCCN1C[C@H](F)C2 (single isomer, unassigned) [Example 71]	≤ 100	< 100		
C#Cc1c(F)ccc2cc(O)cc(-c3nc4c5c(nc(OC[C@@H]6CC(F)(F)CN6C)nc5c3F)N(C(C)c3cccnc3N)[C@@H](C)CO4)c12 (single isomer, unassigned) [Example 148]	≤ 100	< 100		
C#Cc1c(F)ccc2cc(O)cc(-c3nc4c5c(nc(OC[C@@]67CCCN6C[C@H](F)C7)nc5c3F)N(C(C)c3cccnc3N)CCO4)c12 (stereo partly drawn) [Example 34]	≤ 100	< 100		
C#Cc1c(F)ccc2cc(O)cc(-c3nc4c5c(nc(OCC67CCCN6CC(F)C7)nc5c3F)N(CC)C(C)CO4)c12 (single isomer, unassigned) [Example 32]	≤ 100	< 100		
C#Cc1c(F)ccc2cc(O)cc(-c3nc4c5c(nc(OC[C@@H]6C[C@@H](F)CN6C)nc5c3F)N(C(C)c3cccnc3N)[C@@H](C)CO4)c12 (single isomer, unassigned) [Example 146]	≤ 100	< 100		
C#Cc1c(F)ccc2cc(O)cc(-c3nc4c5c(nc(OCC6(CN7CCOCC7)CC6)nc5c3F)N(C(C)c3cccnc3N)[C@@H](C)CO4)c12 (single isomer, unassigned) [Example 69]	≤ 100	< 100		
C#Cc1c(F)ccc2cc(O)cc(-c3nc4c5c(nc(OC[C@@H]6CCCN6C)nc5c3F)N(C(C)c3cccnc3N)[C@@H](C)CO4)c12 (single isomer, unassigned) [Example 67]	≤ 100	< 100		
C#Cc1c(F)ccc2cccc(-c3nc4c5c(nc(OCC67CCCN6CC(F)C7)nc5c3F)N(C(C)c3cccnc3N)C(C)CO4)c12 (single isomer, unassigned) [Example 47]	≤ 100	< 100		
CCc1c(F)ccc2cccc(-c3nc4c5c(nc(OC[C@@]67CCCN6C[C@H](F)C7)nc5c3F)N(C(C)c3cccnc3N)[C@@H](C)CO4)c12 (single isomer, unassigned) [Example 122]	≤ 100	< 100		
C#Cc1c(F)ccc2cc(N)cc(-c3nc4c5c(nc(OCC67CCCN6CC(F)C7)nc5c3F)N(C(C)c3cccnc3N)C(C)CO4)c12 (single isomer, unassigned) [Example 54]			≤ 100	< 100
C#Cc1c(F)ccc2cc(O)cc(-c3nc4c5c(nc(OC[C@@]67CCCN6C[C@H](F)C7)nc5c3F)N(C(C)c3cccnc3N)[C@@H](C)CO4)c12 (stereo partly drawn) [Example 38]	≤ 100	< 100		
[2H]C([2H])(Oc1nc2c3c(nc(-c4cc(O)cc5ccc(F)c(C#C)c45)c(F)c3n1)OCCN2C(C)c1cccnc1N)[C@@]12CCCN1C[C@H](F)C2 (stereo partly drawn) [Example 51]	≤ 100	< 100		
C#Cc1cccc2cccc(-c3nc4c5c(nc(OC[C@@]67CCCN6C[C@H](F)C7)nc5c3F)N(C(C)c3cccnc3N)[C@@H](C)CO4)c12 (single isomer, unassigned) [Example 130]	≤ 100	< 100		
C#Cc1c(F)ccc2cc(O)cc(-c3nc4c5c(nc(OCC67CCCN6CC(F)C7)nc5c3F)N(C(C)c3cccnc3N)C(C)CO4)c12 (single isomer, unassigned) [Example 39]	≤ 100	< 100		
CC(c1cccnc1N)N1c2nc(OC[C@@]34CCCN3C[C@H](F)C4)nc3c(F)c(-c4cccc5cccc(Cl)c45)nc(c23)OC[C@@H]1C (stereo partly drawn) [Example 115]	≤ 100	< 100		
CC(c1cccnc1N)N1c2nc(OC[C@@]34CCCN3C[C@H](F)C4)nc3c(F)c(-c4cccc5ccc(F)c(Cl)c45)nc(c23)OC[C@@H]1C (single isomer, unassigned) [Example 124]	≤ 100	< 100		
C#Cc1c(F)ccc2cc(N)cc(-c3nc4c5c(nc(OCC67CCCN6CC(F)C7)nc5c3F)N(C(C)c3cccnc3N)C(C)CO4)c12 (single isomer, unassigned) [Example 53]	≤ 100	< 100		
C#Cc1c(F)ccc2cc(O)cc(-c3nc4c5c(nc(OC[C@@]67CCCN6C[C@H](F)C7)nc5c3F)N(C(C)C)C(C)CO4)c12 (stereo partly drawn) [Example 49]	≤ 100			
C#Cc1c(F)ccc2cc(N)cc(-c3nc4c5c(nc(OCC67CCCN6CCC7)nc5c3F)N(C(C)c3cccnc3N)[C@@H](C)CO4)c12 (single isomer, unassigned) [Example 164]	≤ 100			

Reference: patent EP4570805A1, “TRICYCLIC COMPOUNDS AND MEDICAL USE THEREOF” (Chia Tai Tianqing Pharmaceutical Group Co., Ltd., priority 2022, dated 2024)
